Measurements as given in patent publication US20190133998A1, “TREATMENT OF TUMORS WITH INHIBITORS OF CXCL12 SIGNALING AND SUBT[…] OF CHEMOTHERAPEUTIC AGENTS” (THE GENERAL HOSPITAL CORPORATION, priority 2016, published 2019).
Read-outs that look alike come from different tables or passages of the source.

What was measured:
CXCR7 [1] = target: CXCR7 (Mus musculus, UniProt P56485); conditions: ID8 cells
Procedure: (§1) CXCR4, CXCR7, and CXCL12 expression in ovarian cancer cells: ID8 or TOV-112D cells were plated at 750,000 cells/well in 6-well plates. Conditions were WT, WT+AMD3100 (10 μM for ID8/5 μM for TOV-112D, MedChemExpress HY-50912 and AbCam ab1207180) 16 hrs, and WT+AMD3100 4 hrs. 2× drug stocks were made in complete DMEM, final volume per well was 2 mL. GolgiPlug (BD Pharmingen) was added to all wells 3 hrs prior to harvesting according to manufacturer's protocol. CXCL12, CXCR4, and CXCR7 expression was measured by Flow Cytometry. Antibodies: anti-h/mCXCL12/SDF-1 APC (IC350A, RandD Systems), anti-mCXCR4/CD184 PE (551966, BD Bioscience), anti-hCXCR4/CD184 PE (306506, BioLegend), anti-h/mCXCR7 PE-Cy7 (331115, BioLegend).
(§2) Flow Cytometry: Cells were harvested using enzyme free dissociation buffer (Thermo Fisher Scientific 13151014) and counted using Trypan Blue viability dye (Corning). Equal numbers of cells were labeled with antibody for surface markers. Thereafter cells were stained for viability and where needed with secondary antibody. […] All incubation steps were performed at 4° C. on a rocker in the dark. Cells were washed 2× before analysis in cell staining buffer consisting of PBS containing 0.5% BSA, 0.02% Sodium Azide, and 2 mM EDTA. Analysis of samples in duplicate was done with a BD Fortessa collecting a minimum of 10,000 events per sample and using FlowJo software.

CXCL12 = conditions: for CXCL12 expression reduced by: 4 or 18 hours, normalized; for overall expression of CXCL12, significance of change: AMD3100 for either 4 or 18 hours
Procedure: as §1, §2

CXCR4 [2] = target: CXCR4 (Homo sapiens, UniProt P61073); conditions: TOV-112D cells; for CXCR4 reduced by: AMD3100 5 μM, normalized
Sequence of CXCR4 (Homo sapiens, UniProt P61073) (P61073 whole entry): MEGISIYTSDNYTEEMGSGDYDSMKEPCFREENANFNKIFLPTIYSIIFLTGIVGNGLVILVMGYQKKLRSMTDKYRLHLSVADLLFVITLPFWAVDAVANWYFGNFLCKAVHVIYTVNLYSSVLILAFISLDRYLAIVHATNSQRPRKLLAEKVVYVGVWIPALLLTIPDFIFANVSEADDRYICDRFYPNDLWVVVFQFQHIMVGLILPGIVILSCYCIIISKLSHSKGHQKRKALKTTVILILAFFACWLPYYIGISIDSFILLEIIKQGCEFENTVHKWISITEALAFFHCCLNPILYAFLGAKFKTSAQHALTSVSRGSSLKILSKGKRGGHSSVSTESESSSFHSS
Procedure: as §1, §2

CXCR7 [3] = target: CXCR7 (Homo sapiens, UniProt P25106); conditions: TOV-112D cells
Sequence of CXCR7 (Homo sapiens, UniProt P25106) (P25106 whole entry): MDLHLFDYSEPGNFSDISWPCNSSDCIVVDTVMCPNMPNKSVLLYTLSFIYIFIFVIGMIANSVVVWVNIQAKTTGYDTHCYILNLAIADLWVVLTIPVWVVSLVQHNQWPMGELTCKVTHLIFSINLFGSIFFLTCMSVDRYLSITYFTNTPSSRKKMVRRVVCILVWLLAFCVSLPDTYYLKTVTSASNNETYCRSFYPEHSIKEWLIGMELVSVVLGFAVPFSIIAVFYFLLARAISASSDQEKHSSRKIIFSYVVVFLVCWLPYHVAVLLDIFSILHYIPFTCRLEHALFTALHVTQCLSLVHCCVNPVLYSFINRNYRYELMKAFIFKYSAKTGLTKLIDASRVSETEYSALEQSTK
Procedure: as §1, §2

TOV-112D cells = test: Soft-agar colony formation, TOV-112D; type: cell-based, human; conditions: TOV-112D, AMD3100 2.5 μM
Procedure: ID8 and TOV Colony Formation in The Presence of Small Molecules and/or Chemotherapy: Bottom Layer Hard Agar: 2×DMEM and 0.8% agar stock was prepared and adjusted to 42° C. in a water bath for 30 min. The agar and 2×DMEM were mixed (1:2). 500 μL of the mixture was then added to each well of a 24 well plate, and the plate was rocked to distribute evenly and allowed to solidify at room temperature in a tissue culture hood. Upper Layer Soft Agar: 0.6% agar stock was prepared adjusted to 42° C. in a water bath for 30 min. During this time, ID8 cells were trypsinized, and 40,000 cells per mL suspension in 1×DMEM was made. Cell suspensions were then mixed with soft agar stock (1:2) and 500 μL of the mixture was then added to each well. Each condition was in triplicate.
[…] 100 μL of each drug was added to the relative wells in triplicate. Plates were then incubated in a humidified incubator with […] for 20-30 days. At the end of the experiment, each well was stained with 0.005% crystal violet in 15% ethanol (140 μL per well) and plates were incubated again for several hours then photos were taken using a microscope. ID8 Colonies equal or bigger […] and TOV colonies equal or bigger than […] were counted using Image J software.

AE17 = test: Survival in intraperitoneal malignant mesothelioma model, AE17; type: in vivo; conditions: C57BL/6 mice, IP once a week for four weeks, AMD3100 1 mg/kg, VIC-008 20 μg per mouse
Procedure: Intraperitoneal malignant mesothelioma (MM) models were established in immunocompetent C57BL/6 mice using syngeneic 40L and AE17 cell lines. Here, we tested the effect of AMD3100 and VIC-008, alone or in combination, on mouse survival in the mesothelioma-bearing mice. […], alone, was administered at 20 μg per mouse intraperitoneally (IP) once a week for four successive weeks. AMD3100 was administered at 1 mg/kg of mouse body weight via IP injection once a week for four successive weeks.

[4] = tested on: TOV-112D human ovarian cancer cells; test: cells; conditions: TOV-112D cells, AMD3100 2.5 μM alone
Procedure: Drug Titrations: TAXOL was titered to determine the concentrations used in combination with AMD3100. Cells were cultured in 96-well black assay plates with optically clear bottoms (500 and 2500 cells per well were tested), including a standard curve plate. ID8 cells were then exposed to increasing concentrations of paclitaxel (1, 0.5, 0.15, 0.05, 0.015, and 0.005 μM), and TOV cells were exposed to 15, 5, and 1 nM Taxol for 48 or 96 hr. Proliferation was measured by measuring the amount of dsDNA using CyQuant reagent and read on a Perkin Elmer Envision 2103. AMD3100 (50, 25, 10, 5, 2.5, and 1 μM) was titered in the same manner. Each condition was done in triplicate. Drugs were not replenished during any of the experiments. Data was analyzed in Prism 7.
Simultaneous Delivery of Small Molecules and Chemotherapy: To determine the effect of AMD3100 alone or in combination with TAXOL, cell proliferation was measured by seeding 2500 TOV cells and 500 ID8 cell per well in a clear bottom 96-well black assay plates. AMD3100 (final concentrations: 10 μM for ID8 and 2.5 μM for TOV) and Paclitaxel (final concentrations: 15 and 5 nM for ID8 cells and 5 and 1 nM for TOV cells) were mixed with DMEM. 100 μL of the mixture was added to the cells. Each condition was done in triplicate. […] Standard curve plates were washed the same day the experiment was done. Plates were stored at −80° C. after washing and proliferation rate was measured then by CyQuant assay.

CXCR4 [5] = target: CXCR4 (Mus musculus, UniProt P70658); conditions: ID8 cells; for expression of CXCR4 reduced by: AMD3100 10 μM, normalized, negative control 0, untreated 100
Sequence of CXCR4 (Mus musculus, UniProt P70658) (P70658 whole entry): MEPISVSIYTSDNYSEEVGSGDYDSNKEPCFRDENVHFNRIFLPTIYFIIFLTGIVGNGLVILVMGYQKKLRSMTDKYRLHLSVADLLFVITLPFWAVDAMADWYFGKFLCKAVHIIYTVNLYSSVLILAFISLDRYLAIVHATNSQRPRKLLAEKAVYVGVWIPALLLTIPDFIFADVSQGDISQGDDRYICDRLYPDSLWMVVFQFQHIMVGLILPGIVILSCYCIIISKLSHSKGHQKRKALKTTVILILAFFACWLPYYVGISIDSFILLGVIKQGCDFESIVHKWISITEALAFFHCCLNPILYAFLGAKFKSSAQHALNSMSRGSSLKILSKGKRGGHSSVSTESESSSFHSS

ID8-Luc cells = conditions: C57/B6 mice, 1 mg/kg IP every 72 hours (subtherapeutic)
Procedure: Six- to eight-week old C57/B6 mice were injected with 5e6 ID8-Luc cells. The presence of the tumor was confirmed by luciferase imaging. The tumor bearing mice were treated with 1 mg/kg AMD-3100 by intraperitoneal (IP) injection every 72 hours or with TAXOL® (10 mg/ml).
Six- to eight-week old C57/B16 mice were injected with 5e6 ID8-Luc cells. The presence of the tumor was confirmed by luciferase imaging. The tumor bearing mice were treated with 1 mg/kg AMD-3100 by IP injection every 72 hours. In the combination treatment, the AMD3100 (1 mg/kg) and ruxolitinib (30 mg/kg) were administered concurrently but not simultaneously (i.e., administration was staggered).

[6] = AMD3100 for either 4 or 18 hours

Sequence of CXCR7 (Mus musculus, UniProt P56485) (P56485 whole entry): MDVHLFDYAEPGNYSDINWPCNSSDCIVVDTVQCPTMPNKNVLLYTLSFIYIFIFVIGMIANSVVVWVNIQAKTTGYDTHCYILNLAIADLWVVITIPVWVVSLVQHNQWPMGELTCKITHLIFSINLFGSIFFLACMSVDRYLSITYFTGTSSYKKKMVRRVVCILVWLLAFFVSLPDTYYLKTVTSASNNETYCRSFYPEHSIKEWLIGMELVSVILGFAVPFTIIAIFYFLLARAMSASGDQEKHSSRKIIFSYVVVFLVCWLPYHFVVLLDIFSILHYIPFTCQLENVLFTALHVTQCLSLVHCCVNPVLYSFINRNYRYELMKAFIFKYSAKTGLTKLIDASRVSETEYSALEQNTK

Plerixafor octahydrochioride [AMD3100]
CXCR7 expression increased by (CXCR7 [1]; AMD3100 10 μM, 4 or 18 hours, normalized): 6%-11 | surface expression of CXCR7, significance of change (CXCR7 [1]; [6]): did not significantly alter | CXCL12 expression reduced by (CXCL12; ID8 cells, AMD3100 10 μM): 9-10% | overall expression of CXCL12, significance of change (CXCL12; ID8 cells): did not significantly alter | CXCL12 expression reduced by (CXCL12; TOV-112D cells, AMD3100 5 μM): 5-7% | overall expression of CXCL12, significance of change (CXCL12; TOV-112D cells): did not significantly alter | CXCR4 reduced by (CXCR4 [2]; 4 hours): 13% | CXCR4 reduced by (CXCR4 [2]; 18 hours): 4% | surface expression of CXCR4, significance of change (CXCR4 [2]; [6]): did not significantly alter | CXCR7 expression (CXCR7 [3]; AMD3100 5 μM, 18 hours, normalized): returned to basal levels | CXCR7 expression increased by (CXCR7 [3]; AMD3100 5 μM, after 4 hours, normalized): 20% | surface expression of CXCR7, significance of change (CXCR7 [3]; [6]): did not significantly alter | colony formation (TOV-112D cells): did not reduce colony formation | animal survival compared to saline control (AE17): modest benefit to survival | limited cell growth by [4]: 24.5% | expression of CXCR4 reduced by (CXCR4 [5]; 4 hours): 24.5% | expression of CXCR4 reduced by (CXCR4 [5]; 18 hours): 23.5% | surface expression of CXCR4, significance of change (CXCR4 [5]; [6]): did not significantly alter | survival of the tumor bearing mice (ID8-Luc cells): extends the survival
